Results from patent US9078441B2, “Antimicrobial flush solutions” (Board of Regents, The University of Texas System, priority 2003, dated 2015).

Assays:
MRSA = assay: Silicone disk bioprosthetic colonization MRSA model; type: cell-based, Staphylococcus aureus; conditions: for suppression / eradication / regrowth of bioprosthetic MRSA colonization of silicone disks, in words / 1 hour in Drug Mean CFU ± std. error: 1 hour exposure; for suppression / eradication / regrowth of bioprosthetic MRSA colonization of silicone disks, in words: with or without 24 h incubation; for 1 hour in Drug Mean CFU ± std. error / 24 h Growth after 1 hour in Drug Mean CFU ± std. error: MRSA on silicone disks; for 1 hour in Drug Mean CFU ± std. error: up to 5,000 CFU/disk; for 24 h Growth after 1 hour in Drug Mean CFU ± std. error: exposure then 24 h reincubation in TSB
Description: (§1) On day 1, pieces of biofilm were prepared. Sterile (Ethylene Oxide Gas Sterilized) silicone disks were placed in 5 ml sterile snap top Falcon tubes and 0.5 ml of pooled plasma added. This was followed by incubation (while rocking) overnight at 37° C.
(§2) On day 2, the bacteria was added to form the biofilm. Using sterile plastic transfer pipettes, the plasma was suctioned out from the tubes and replaced with 0.5 ml of bacterial inoculum (50 ml of Mueller-Hinton broth containing 4-5 colonies of freshly grown bacteria). The tubes were incubated overnight at 37° C.
(§3) On day 3, a drug was added in an attempt to kill the bacteria. Before adding the drug, the pieces were washed in 0.5 ml of 0.9% saline in order to remove any planktonic bacteria. The tubes (containing the biofilm disks and saline) were placed in the incubator at 37° C. for 30 minutes. The saline was then pipetted out using sterile plastic transfer pipettes (taking care not to disturb the pieces too much). The silicone disks were then transferred to new 5 ml snap-top falcon tubes containing 0.5 ml of the drug solution to be tested. The drug solutions tested were as follows: (1) minocycline 3 mg/ml; (2) EDTA 30 mg/ml; (3) 25% ethanol solution; (4) EDTA 30 mg/ml in 25% ethanol; (5) minocycline 3 mg/ml in 25% ethanol; (6) minocycline 3 mg/ml with EDTA 30 mg/ml; and (7) triple combination of minocycline 3 mg/ml and EDTA 30 mg/ml in 25% ethanol solution. The disks were allowed to sit in the drug for 1 hour. The drug was then suctioned out using a plastic transfer pipette. The pieces were once again washed with 0.5 ml saline (added, and shaken for 30 seconds). The disks were then transferred to 15 ml snap-top falcon tubes containing 5 ml of 0.9% saline. The pieces were sonicated for 5 minutes, and then vortexed for 30 seconds. 100 microliters (μl) of the saline was then plated on a room temperature TSAII blood agar plate, and evenly spread using a sterile glass spreader. The plates were incubated overnight at 37° C.
(§4) For the 24 hour reincubation studies, pieces of biofilm were prepared the same exact way as the regular pieces. Before adding the drug, the pieces were washed in 0.5 ml of 0.9% saline in order to remove any planktonic bacteria. The tubes (now containing the biofilm disks and saline) were placed in the incubator at 37° C. for 30 minutes. The saline was then pipetted out using sterile plastic transfer pipettes (taking care not to disturb the pieces too much). The silicone disks were then transferred to new 5 ml snap-top falcon tubes containing 0.5 ml of the drug to be tested. […] The drug was then suctioned out using a plastic transfer pipette. The pieces were once again washed with 0.5 ml saline (added, and shaken for 30 seconds). The pieces were then transferred to new sterile 5 ml snap-top falcon tubes containing 0.5 ml of sterile trypticase soy broth (TSB) and then placed in the incubator at 37° C. overnight.
(§5) On day 4, colonies were counted and the results recorded. The colonies were hand counted, and counting was stopped at 100 colonies. Anything greater was considered >100 colonies. The counts were recorded, and multiplied by a factor of 50 because of the dilution factor between the 5 ml of saline containing the disk and the 100 μl that was plated onto the TSAII blood agar plates. The pieces were then sonicated (in the same TSB that grew overnight) for 5 minutes. 100 μl was then plated on TSAII blood agar plates, and the plates were placed in the incubator to grow overnight at 37° C.
(§6) On day 5, the regrowth pieces were counted. The colonies were hand counted, and counting was stopped at 100 colonies. Anything greater was considered >100 colonies. The counts were recorded, and multiplied by a factor of 5 because of the dilution factor between the 0.5 ml of TSB containing the disk and the 100 μl that was plated onto the TSAII blood agar plates.

Candida parapsilosis = assay: Silicone disk bioprosthetic colonization Candida parapsilosis model; type: cell-based; conditions: for suppression / eradication of Candida parapsilosis growth on silicone disks, in words / 1 hour in Drug Mean CFU C. Parapsilosis: 1 hour exposure; for 1 hour in Drug Mean CFU C. Parapsilosis / 24 h Growth after 1 hour in Drug Mean CFU C. Parapsilosis: silicone disks; for 24 h Growth after 1 hour in Drug Mean CFU C. Parapsilosis: exposure then 24 h reincubation in TSB
Description: as §1, §2, §3, §4, §5, §6

C. parapsilosis = assay: Modified Robbins device (MRD) in vitro colonization model, Candida parapsilosis in biofilm on silicone catheter segments; type: cell-based; conditions: for 24 h Growth after 15 Minutes in Drug Mean CFU C. Parapsilosis / suppression / eradication / regrowth of C. parapsilosis embedded in biofilm, in words: 15 min exposure; for 24 h Growth after 15 Minutes in Drug Mean CFU C. Parapsilosis: then re-incubation in broth for 24 h; for suppression / eradication / regrowth of C. parapsilosis embedded in biofilm, in words: with or without 24 h re-incubation in broth; for 15 Minutes in Drug Mean CFU C. Parapsilosis: cultured immediately after 15 min exposure at 37° C.
Description: (§7) The in vitro model utilized a modified Robbins device (MRD) to study the colonization of catheter segments with organisms embedded in biofilm. The modified Robbins device has been previously described (Nickel et al., 1991; Evans et al., 1987, see also U.S. Pat. No. 5,362,754) and is constructed from an acrylic block, 42 cm long with a lumen of 2×10 mm. It consists of 25 evenly spaced specimen plugs, each connected to a silicone catheter segment (Allegiance Healthcare Corp., McGaw Park, Ill.) whose anterior surface (0.3 cm^2) comes in conta-ct with the flushed infusate. After placing the catheter segments in the specimen plug of the modified Robbins device, the entire apparatus was gas sterilized using ethylene oxide. A 500 ml 5% dextrose in water (5% D5/W) was connected to the modified Robbins device through an intravenous tubing administration set and was subsequently infected with an innoculum of 10^8 CFU/ml of methicillin-resistant Staphylococcus aureus (MRSA), to produce an infected infusate at the concentration of 2×10^5 CFU/ml. The biofilm-producing S. aureus isolates were obtained from patients with CRBSI. In another series of experiments, 500 ml 5% D5/W bag was infected with a biofilm-producing C. parapsilosis using an inoculum of 10^5 CFU/ml to produce an infected infusate at a concentration of 2×10^2 CFU/ml of C. parapsilosis. The whole system was incubated at 37° C. and the infected infusate was flushed through the MRD using a peristaltic pump permitting the infusate to flow at the rate of 60 ml/hour for 8 hours. The modified Robbins device was left to incubate for a total of 18 hours (another 10 hours). Subsequently, the infected bag was removed and a 250 ml saline sterile bag which was infused through the MRD at 125 ml/hour for 2 hours in order to remove all free floating organisms. To insure biofilm formation, at least three catheter segments were randomly removed from the 25 evenly spaced catheter segments in the MRD and studied by scanning electron microscopy. This was repeated for every organism tested.
(§8) The remaining catheter segments were removed and each segment was placed in a tube containing 2 ml of one of the following broth solutions: (1) Mueller-Hinton broth (Becton Dickinson & Co., Cockeysville, Md.); (2) EDTA at a concentration of 30 mg/ml in broth (Abbott Laboratories, North Chicago, Ill.); (3) minocycline at 3 mg/ml in broth (Wyeth-Ayerst Laboratories, Collegeville, Pa.); (4) minocycline (3 mg/ml) and EDTA combination (M-EDTA) in broth; (5) 25% ethanol (ETOH) solution in broth; (6) minocycline at 3 mg/ml in 25% ethanol solution in broth; (7) EDTA 30 mg/ml in 25% ethanol solution in broth; and (8) M-EDTA in 25% ethanol solution in broth. The experiments were repeated in triplicate or quadruplicate, and during each experiment, 2-5 catheter segments were exposed to the same solution for only 15 minutes at 37° C. Subsequently, some of the catheter segments were immediately removed and cultured by scrape sonication. Other alternating catheter segments were removed, placed in broth (TSB), incubated for 24 hours, and then cultured by scrape sonication. This added step of re-incubating catheter segments in broth after the 15 minutes exposure was done to determine whether these agents suppressed the growth of organisms embedded in biofilm or eradicated them. The surface of the catheter segment that was exposed to the infected infusate was scraped with a sterile wooden applicator stick and placed, along with the stick, in a tube containing 0.5 ml of trypticase soy broth. The tubes were sonicated for five minutes; 0.1 ml of the sonicated broth solution in the tube was pipetted and plated over a blood agar plate, which was incubated at 37° for 24 hours. The agar plates were checked for any contaminants. The isolated organisms had to be of the same species and colonial morphology as the original organism used to infect the infusate.

[1] = system: methicillin-resistant Staphylococcus aureus (MRSA); assay: Modified Robbins device (MRD) in vitro colonization model, MRSA in biofilm on silicone catheter segments; type: cell-based; conditions: for 24 h growth after 15 min in drug mean CFU MRSA / suppression / eradication / regrowth of MRSA embedded in biofilm, in words: 15 min exposure; for 24 h growth after 15 min in drug mean CFU MRSA: then re-incubation in broth for 24 h at 37° C.; for suppression / eradication / regrowth of MRSA embedded in biofilm, in words: with or without 24 h re-incubation in broth; for 15 minutes in Drug mean CFU MRSA: catheter segments cultured by scrape sonication immediately after 15 min exposure at 37° C., confluent growth counted as 500
Description: as §7, §8

[2] = system: organisms that colonize the lumen of the catheter; conditions: dwell time of 4-24 hours; cited from earlier work

Row | Structure (SMILES) | suppression / eradication / regrowth of bioprosthetic MRSA colonization of silicone disks, in words (MRSA) | 1 hour in Drug Mean CFU ± std. error (MRSA) [CFU] | 24 h Growth after 1 hour in Drug Mean CFU ± std. error (MRSA) [CFU] | suppression / eradication of Candida parapsilosis growth on silicone disks, in words (Candida parapsilosis) | 1 hour in Drug Mean CFU C. Parapsilosis (Candida parapsilosis) [CFU] | 24 h Growth after 1 hour in Drug Mean CFU C. Parapsilosis (Candida parapsilosis) [CFU] | 24 h Growth after 15 Minutes in Drug Mean CFU C. Parapsilosis (C. parapsilosis) [CFU] | suppression / eradication / regrowth of C. parapsilosis embedded in biofilm, in words (C. parapsilosis) | 15 Minutes in Drug Mean CFU C. Parapsilosis (C. parapsilosis) [CFU] | 24 h growth after 15 min in drug mean CFU MRSA [1] [CFU] | suppression / eradication / regrowth of MRSA embedded in biofilm, in words [1] | 15 minutes in Drug mean CFU MRSA [1] [CFU] | 24 h growth after 15 min in drug mean CFU MRSA ([1]; listed as 25% ethanol solution) [CFU] | 15 minutes in Drug mean CFU MRSA ([1]; listed as 25% ethanol solution) [CFU] | eradication of microbial organisms embedded in biofilm from catheter surfaces, in words [2]
1 | CN(C)c1ccc(O)c2c1C[C@H]1C[C@H]3[C@H](N(C)C)C(O)=C(C(N)=O)C(=O)[C@@]3(O)C(O)=C1C2=O [3 mg/ml minocycline, minocycline] | failed to suppress | 5000.0 ± 0.0 | 5000.0 ± 0.0 | failed to suppress or eradicate | 5000.0 ± 0.0 | 5000.0 ± 0.0 | 500.0 ± 0.0 | failed to eradicate | 138.3 ± 111.8 | 308.3 ± 151.1 | some decrease in colonization | 323.7 ± 199.0 |  |  | 
2 | CCO [25% EtOH in MHB, ethanol] | failed to suppress | 2900.0 ± 722.8 | 5000.0 ± 0.0 | failed to completely suppress | 1933 ± 601.6 | 3875.0 ± 618.3 | 142.9 ± 225.9 | regrowth was noted | 0 | 500.0 ± 0.0 |  | 138.0 ± 193.8 | 500 | 138 | 
3 | O=C(O)CN(CCN(CC(=O)O)CC(=O)O)CC(=O)O [30 mg/ml EDTA, ethylenediamine-N,N,N′,N′,-tetraacetic acid] | failed to suppress | 5000.0 ± 0.0 | 5000.0 ± 0.0 | failed to suppress or eradicate | 5000.0 ± 0.0 | 5000.0 ± 0.0 | 500.0 ± 0.0 | failed to eradicate | 160 ± 78.8 | 500.0 ± 0.0 | failed to eradicate | 479.6 ± 44.9 |  |  | 
4 | CN[C@H](CC(C)C)C(=O)N[C@H]1C(=O)N[C@@H](CC(N)=O)C(=O)N[C@H]2C(=O)N[C@H]3C(=O)N[C@H](C(=O)N[C@H](C(=O)O)c4cc(O)cc(O)c4-c4cc3ccc4O)[C@H](O)c3ccc(c(Cl)c3)Oc3cc2cc(c3O[C@@H]2O[C@H](CO)[C@@H](O)[C@H](O)[C@H]2O[C@H]2C[C@](C)(N)[C@H](O)[C@H](C)O2)Oc2ccc(cc2Cl)[C@H]1O [vancomycin alone, vancomycin] |  |  |  |  |  |  |  |  |  |  |  |  |  |  | failed to eradicate
